The numbers were not newly measured in patent US20100291629A1, “USE OF DELEUCOCYTATION FILTERS FOR DEFENSIN PURIFICATION” (ETABLISSEMENT FRANCAIS DU SANG, priority 2006, published 2010), which cites them from elsewhere.

Data set [1] relates to neutrophils. The settings on record: PMA 1 μg/ml.
The subject of data set [2] is neutrophils.
In another data set the test system is isolated neutrophils. The settings on record: Ionomycin 1 μM; 30.10^6 isolated neutrophils.

As for `CCCCCCCCCCCCCC(=O)O[C@@H]1[C@@H](C)[C@@]2(O)[C@@H](C=C(CO)C[C@]3(O)C(=O)C(C)=C[C@@H]23)[C@@H]2C(C)(C)[C@]12OC(C)=O` [PMA, phorbol myristate acetate], the defensins released in the data set with neutrophils [1] was 8%.

`CSCC[C@H](NC=O)C(=O)N[C@@H](CC(C)C)C(=O)N[C@@H](Cc1ccccc1)C(=O)O` [fMLP, N-formylmethionyl-leucyl-phenylalanine]: the “defensin release, % of the content” value in the data set with neutrophils [2] (fMLP 10^−7 M) is given as 17%.

With `C[C@H](CCC(=O)O)C[C@H](C)C[C@H](C)C(=O)/C=C(\O)[C@H](C)C[C@H](C)C/C=C/[C@@H](C)[C@@H](O)[C@@H](C)[C@@H](O)C[C@@H]1CC[C@@](C)([C@H]2CC[C@@](C)([C@@H](C)O)O2)O1` [ionomycin, Ionomycin], the α-defensin exocytosis rate entry in the data set on isolated neutrophils is on record as “approximately 20%”.

On to “IL8: Interleukine 8, used to treat neutrophils in vitro”, for which, in the data set with neutrophils [2] (IL8 50 ng/ml, 2.10^6 neutrophils), the “defensin release, % of the defensin content in neutrophil granules” value was 10%.
